Source: paper PMC12190736, “Development and In Vitro Characterization of [^3H]GMC-058 as Radioligand for Imaging Parkinsonian-Related Proteinopathies” (Cells, 2025)
Marks after values point to notes of the source that are not given here.

What was measured:
[1] = molecular target: AD, PSP, CBD, MSA-P, PD and control brain homogenates; assay: Saturation binding assays with [^3H]GMC-058 in brain homogenates
Description: For AD, CBD, PSP, and CT cases, the frozen tissue blocks were prepared as described by Stehouwer et al. [13]. In brief, tissue blocks were thawed and homogenized in ice-cold pH 7.0 phosphate-buffered saline (PBS) at 300 mg/mL on ice using a glass homogenizer, diluted 30-fold with PBS to 10 mg/mL, and homogenized a second time with a Brinkmann Polytron homogenizer before storage at −80 °C.
After incubation, samples were filtered under vacuum on equilibrated GF/B UniFilter plates (PerkinElmer) using the FilterMate 196 (PerkinElmer). Afterwards, filters were washed three times with 250 μL chilled buffer (PBS + 20% EtOH). [^3H]GMC-058 binding was measured with a beta scintillation counter (PerkinElmer). The saturation data was fitted and analyzed using the non-linear regression function of GraphPad Prism 10 software to calculate the dissociation constant (KD) and maximum number of binding sites (Bmax). Scatchard plots were prepared with GraphPad Prism 10 software to display the saturation binding data.

[2] = test system: tissue microarrays (TMAs) from cases with different proteinopathies; assay: Autoradiography and emulsion autoradiography on tissue microarrays; type: binding, human
Description: Tissue micro-arrays (TMAs), prepared from paraffin-embedded tissue from human post-mortem tissue as described in [14], were first de-paraffinized with two 1 h and one overnight incubation in Neo-Clear Xylene Substitute (Sigma-Aldrich, St. Louis, MO, USA) at 37 °C and then […] in three short incubations at RT with decreasing concentrations of ethanol before autoradiography with [^3H]GMC-058 was performed as described above. For the saturation binding autoradiography, duplicate slides of each TMA set were incubated with 0.3 nM to 200 nM [^3H]GMC-058. Adjacent sections were co-incubated with 5 μM of unlabeled GMC-044 to calculate NSB. The quantification of total and non-specific binding was performed via delineation of the ROIs on the whole core, except for MSA, where the ROI followed the areas in which the binding of [^3H]GMC-058 corresponded to areas with α-syn inclusions. Those cores that had imperfections or were incomplete were not included in the analysis, or only the area of remaining tissue that adhered to the glass slide was delineated. For the cores from the substantia nigra of PD patient cases, the cores selected for analysis were those containing α-syn inclusion, but no A-β deposits of pTau tangles. The information was collected from IHC analysis of adjacent TMA slides.
For high-resolution emulsion autoradiography, an autoradiography experiment with TMAs using 25 nM [^3H]GMC-058 was performed as described above. At the end of the 90 h exposure to the storage phosphor screen, slides were stored in a vacuum until dipping in a photoemulsion. In the dark, using a sodium lamp, Agar Scientific, AGP9284 type NTB emulsion was melted in a heated water bath and diluted (1:1) with ddH2O. The emulsion was poured into dipping chambers, and the slides were dipped and placed vertically to air-dry. When completely dry, the slides were placed in a light-tight slide box with desiccant and exposed at 4 C for 1–12 weeks. After exposure, the slides were developed in diluted Phenisol Developer for 2 min, rinsed in water, and fixed in hypam Fixer at 17 °C in a water bath. After rinsing in water, the slides were counterstained with Harris HTX, dehydrated in graded ethanol, cleared in Xylene, and mounted in Pertex. Images were taken using a 3D Histech P250 III scanner (3DHISTECH Kft. Hungary) at up to 15 focal layers with a distance of 0.2 μm.

[3H]c1cc(N2CCN(c3ccc(NC(=O)C(C)(C)C)cc3)CC2)ccc1OC [[^3H]GMC-058, N-(4-(4-(4-methoxy-[3-3H]phenyl)piperazin-1-yl)phenyl)pivalamide]
Kd ([1]; AD brain homogenates): 5.4 nM | Kd ([1]; CBD brain homogenates): > 50 nM | Saturation binding ([1]; PD tissue): No evidence of saturation binding | Kd ([1]; PSP brain homogenates): > 50 nM | Kd ([1]; control brain homogenates): > 100 nM | Saturation binding autoradiography ([2]; 0.3 nM to 200 nM, TMAs): specific binding did not reach saturation in any of the tissues | Specific binding versus displaceable binding in controls ([2]; 25 nM, PD, MSA, CAA, AD, PSP and CBD, p < 0.01): significantly higher than the displaceable binding in controls | Co-localization of binding (high-resolution autoradiography) ([2]; 25 nM, TMAs): co-localized with α-syn inclusions in PD and MSA, with dense Aβ plaques in CAA and AD, and with p-tau inclusions in PSP and CBD | Specific binding, mean ([2]; 25 nM, TMAs, AD): 127 ** fmol/mg tissue equivalent | Specific binding, mean ([2]; 25 nM, TMAs, CAA): 131 ** fmol/mg tissue equivalent | Specific binding, mean ([2]; 25 nM, TMAs, CBD): 204 *** fmol/mg tissue equivalent | Specific binding, mean ([2]; 25 nM, TMAs, MSA): 166 ** fmol/mg tissue equivalent | Displaceable (off-target) binding, mean ([2]; 25 nM, TMAs, NDE (non-dementia elderly controls)): 70 fmol/mg tissue equivalent | Specific binding, mean ([2]; 25 nM, TMAs, PD): 129 *** fmol/mg tissue equivalent | Specific binding, mean ([2]; 25 nM, TMAs, PSP): 173 *** fmol/mg tissue equivalent | Displaceable (off-target) binding, mean ([2]; 25 nM, TMAs, liver control): 57 fmol/mg tissue equivalent
